This note sets out measurements from BindingDB's records for PubMed 39149111 (Cairo University).

The assay concerns the target Prostaglandin G/H synthase 2 (Ovis aries) (UniProt P79208). Kind of assay: Inhibition of ovine COX-2 using arachidonic acid as substrate preincubated for 5 mins followed by substrate addition.

Each structure is given as a SMILES string.

Chain of Prostaglandin G/H synthase 2 (Ovis aries) (P79208 whole entry, looked up): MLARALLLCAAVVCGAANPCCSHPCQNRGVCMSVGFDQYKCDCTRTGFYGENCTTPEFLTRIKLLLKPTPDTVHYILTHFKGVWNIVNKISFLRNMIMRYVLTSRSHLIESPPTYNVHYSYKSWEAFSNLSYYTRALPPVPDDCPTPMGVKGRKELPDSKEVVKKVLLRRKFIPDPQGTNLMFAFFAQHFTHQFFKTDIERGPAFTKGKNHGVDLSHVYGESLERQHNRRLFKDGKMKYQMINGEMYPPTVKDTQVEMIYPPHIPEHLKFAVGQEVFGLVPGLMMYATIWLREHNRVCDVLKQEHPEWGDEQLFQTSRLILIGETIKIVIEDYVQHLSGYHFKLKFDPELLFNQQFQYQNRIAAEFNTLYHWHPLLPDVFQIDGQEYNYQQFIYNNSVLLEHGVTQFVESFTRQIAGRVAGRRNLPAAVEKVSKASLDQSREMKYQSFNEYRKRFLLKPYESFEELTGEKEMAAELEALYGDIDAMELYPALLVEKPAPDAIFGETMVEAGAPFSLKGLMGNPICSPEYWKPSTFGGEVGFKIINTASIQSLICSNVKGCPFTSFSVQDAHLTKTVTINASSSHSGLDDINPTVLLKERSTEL

Turning to `O=C1NNC(N=CCc2ccc([N+](=O)[O-])cc2)C1=NNc1ccc(-c2nc3ccccc3o2)cc1` (stereo unspecified), the half-inhibitory concentration (IC50) (usually the concentration needed to halve the response being measured) is 560 nM.
